Results taken from patent US7612107B2, “Treatment and inhibition of disease conditions using flexible heteroarotinoids” (The Board of Regents of the University of Oklahoma, priority 2005, dated 2009).

Key:
OVCAR-3 xenograft tumors = assay: OVCAR-3 xenograft tumor growth model; type: in vivo, mouse; details: 10 mg/kg/day by gavage, 5 days per week, 4 weeks
Experimental: Groups of 5 mice bearing OVCAR-3 xenografted tumors were gavaged daily with the indicated drugs in sesame oil (▪ closed square) or with sesame oil alone (∘ open circle). Tumor volumes were measured in 3 dimensions with calipers weekly. Each data point represents the average and standard error of the tumor volumes on the indicated treatment day relative to the tumor volume on day zero. Nu/nu mice were injected subcutaneously with one million OVCAR-3 cells and arbitrarily divided into five groups of six mice each. After three weeks of tumor growth, the animals were gavaged with sesame oil, 10 mg/kg/day 4-HPR, or the indicated Het five times per week for four weeks and the tumors were measured once per week. The tumor sizes were averaged and divided by the average size for each group on the day that treatment was initiated (day 0).
The OVCAR-3 cultures were maintained in RPMI media supplemented with 10% fetal bovine serum. All animal experimentation described in this manuscript was conducted in accord with accepted standards of humane animal care. Twenty-five female NU/NU CD-1 female mice (Charles Rivers Laboratories) were housed in a laminar flow room under sterile conditions at 83-85° F. The mice were quarantined for one week prior to the beginning of the study and were allowed access to autoclaved food (Purina 5001 mouse/rat sterilizable diet, St. Louis, Mo.) and water ad libitum. OVCAR-3 cells in log phase growth were harvested by trypsinization, resuspended in RPMI culture medium, and centrifuged at 3,000 rpm for 10 min. The pellets were resuspended in RPMI culture medium at a concentration of 7×10^6 cells/ml before implantation into mice. Animals were injected with 3.5×10^6 cells into the right scapular region with a 24-gauge needle/1 cc tuberculin syringe. Twenty-four hours after tumor implantation, animals were randomized into 5 groups of 5 animals each.
The Hets SHet50, SHetA2 and SHetA4 were synthesized and their receptor specificity determined as previously described (17,19). The 4-HPR compound was a gift from R.W. Johnson Pharmaceutical Research Institute, Raritan, N.J. All retinoids were dissolved in super refined sesame oil (Croda, Inc., Parsippany, N.J.) and stored at −80° C. Since the retinoids are light sensitive, all manipulations involving retinoids were performed under subdued lighting. […] Tumors were measured with calipers weekly, and tumor volumes were calculated using the formula: volume=length×width×height. Tumor growth was determined by the dividing the volume of the tumor at each weekly measurement by the volume on the first day of treatment. Animal weights and clinical signs of overall health status and cutaneous toxicities were recorded weekly.

[1] = test system: Thymidine Phosphorylase (TP); assay: Real time rt-PCR and Western blot validation, thymidine phosphorylase; type: cell-based; details: OVCAR-3 1 μM (rt-PCR); A2780 10 μM (Western)
Experimental: FIG. 13. Real Time rt-PCR validation of SHetA2 inhibition of TP and TSP-1 mRNA Expression. OVCAR-3 cultures were treated with 1 μM SHetA2 for the indicated period of time prior to harvesting the cells and isolating RNA. cDNA was prepared and used in real time rt-PCR reactions. Real time rt-PCR was performed on cDNA from cultures various treatment times.
FIG. 14. Western blot validation of SHetA2 inhibition of TP and TSP4 protein expression. A2780 ovarian cancer cells were treated with 10 μM SHetA2 for the indicated amounts of time. Equal amounts of whole cell protein extracts were evaluated by Western blot.

ovarian cancer cells = assay: Microarray analysis of gene expression in SHetA2-treated ovarian cancer cells; type: cell-based, Homo sapiens
Experimental: Microarray analysis was conducted to determine specific disease causing genes which were expressed at higher (>1 fold) or lower (<1 fold) levels than normal in ovarian cancer cells treated with SHetA2 (see Table 6).

[2] = Genbank AI358954, Neuromuscular Diseases

Compound: CC1(C)CC(C)(C)c2cc(NC(=S)Nc3ccc([N+](=O)[O-])cc3)ccc2S1 [SHetA2]
- Growth of xenograft tumors versus sesame oil control (OVCAR-3 xenograft tumors): significantly inhibited the growth
- Expression of TP at the RNA and protein levels [1]: inhibit expression
- Fold: Putative c-Myc-responsive (RCL) (ovarian cancer cells; Genbank AA523444, Cancer): 0.41 Fold
- Fold: Myeloidlymphoid or mixed-lineage leukemia (trithorax (Drosophila) homolog); translocated to, 4 (HGC6.3) (ovarian cancer cells; Genbank AB016902.2, Cancer): 5.07 Fold
- Fold: Vascular endothelial growth factor (VEGF) (ovarian cancer cells; Genbank AF022375.1): 0.47 Fold
- Fold: METH1 protein (METH1), contain a repeated amino acid motif homologous to the anti-angiogenic type 1 repeats of thromospondin-1 (TSP1) (ovarian cancer cells; Genbank AF060152.1): 0.39 Fold
- Fold: EHT protein (ovarian cancer cells; Genbank AF068266.1, Cancer): 2.80 Fold
- Fold: Familial Mediterranean fever locus region (ovarian cancer cells; Genbank AF098968.1, Autoimmune Diseases): 0.30 Fold
- Fold: Myeloidlymphoid leukemia 2 (MLL2) (ovarian cancer cells; Genbank AF105279.1, Cancer): 0.31 Fold
- Fold: Glypican-6 (GPC6) (ovarian cancer cells; Genbank AF111178.1): 2.07 Fold
- Fold: Hemochromatosis splice variant 495-2314del, Iron Storage Disorder (ovarian cancer cells; Genbank AF144243.1, Storage and Metabolism Deficiencies): 3.01 Fold
- Fold: BAGE2 antigen (BAGE2) (ovarian cancer cells; Genbank AF218570.1, Cancer): 0.34 Fold
- Fold: Prothymosin alpha (PTMA) (ovarian cancer cells; Genbank AF257099, Polycystic Kidney Disease): 2.60 Fold
- Fold: Deleted in lymphocytic leukemia, 2/DEF = Homo sapiens BCMS-upstream neighbor (BCMSUN) (ovarian cancer cells; Genbank AF264787.1, Cancer): 0.33 Fold
- Fold: Deleted in lymphocytic leukemia, BCMS-upstream neighbor (BCMSUN) (DLEU2) (ovarian cancer cells; Genbank AF264787.1, Cancer): 0.40 Fold
- Fold: PNAS-128 in leukemia (ovarian cancer cells; Genbank AF277186.1, Cancer): 0.36 Fold
- Fold: BAM in multiple myeloma (ovarian cancer cells; Genbank AF455755.1, Cancer): 3.05 Fold
- Fold: Cervical cancer suppressor gene-4 protein (HCCS-4) (ovarian cancer cells; Genbank AF465843.1, Cancer): 2.06 Fold
- Fold: FLJ23538 fis, highly similar to BETA2 Human MEN1(Multiple Endocrine Neoplasia) region clone epsilonbeta (BETA2) (ovarian cancer cells; Genbank AI042152, Cancer): 0.31 Fold
- Fold: ESTs, Moderately similar to S72399 ras-homolog GTPase rab28 isoform S (ovarian cancer cells; Genbank AI080106, Cancer): 7.75 Fold
- Fold: Prostate cancer associated protein 5 (PCANAP5) (ovarian cancer cells; Genbank AI299378, Cancer): 0.23 Fold
- Fold: ESTs, Weakly similar to DRPL_Human Atrophin-1 (DRPL) in Huntington's disease (HD) and dentatorubral and pallidoluysian atrophy (DRPLA) dentatorubral-pallidoluysian atrophy (ovarian cancer cells; [2]): 2.52 Fold
- Fold: ESTs, Weakly similar to DRPL_Human Atrophin-1 (DRPL) in dentatorubral-pallidoluysian atrophy (ovarian cancer cells; [2]): 2.52 Fold
- Fold: B-cell CLLlymphoma 3 (BCL3) (ovarian cancer cells; Genbank AI829875, Cancer): 2.58 Fold
- Fold: Lipoma cell line Li-538SV40 ectopic sequence from HMGI-C fusion mRNA, 3 sequence (LI) (ovarian cancer cells; Genbank AI990940, Cancer): 0.47 Fold
- Fold: Butyrophilin, subfamily 3, member A2 (BTN3A2) milk protein (ovarian cancer cells; Genbank AI991252, Autoimmune Diseases): 2.31 Fold
- Fold: Disintegrin-like and metalloprotease (reprolysin type) with thrombospondin type 1 motif, highly similar to Homo sapiens metalloproteinase with thrombospondin type 1 motifs (ADAMTS1) (ovarian cancer cells; Genbank AK023795.1): 0.43 Fold
- Fold: 3-hydroxyisobutyrate dehydrogenase, mitochondrial precursor (ovarian cancer cells; Genbank AK025558): 0.00 Fold
- Fold: NICE-5 protein (ovarian cancer cells; Genbank AW779859, Cancer): 0.48 Fold
- Fold: ASPLTFE3 type 2 fusion protein, ASPLTFE3 type 1 fusion protein mRNA in Sarcoma (ovarian cancer cells; Genbank AY034077.1, Cancer): 0.46 Fold
- Fold: RASSF3 isoform A, putative tumor suppressor (ovarian cancer cells; Genbank AY062002.1, Cancer): 2.88 Fold
- Fold: A kinase (PRKA) anchor protein 1, clone MGC: 1807 (ovarian cancer cells; Genbank BC000729.1): 2.00 Fold
- Fold: IMAGE: 3050107 mRNA, TBC1 domain family (ovarian cancer cells; Genbank BC001525, Cancer): 0.67 Fold
- Fold: v-Myc avian myelocytomatosis viral related oncogene, neuroblastoma derived (MYCN) (ovarian cancer cells; Genbank BC002712.1, Cancer): 3.99 Fold
- Fold: aarF domain containing kinase 4 (ovarian cancer cells; Genbank BC013114): 2.30 Fold
- Fold: Similar to vitelliform macular dystrophy (Best disease, bestrophin) (ovarian cancer cells; Genbank BC041664.1, Eye Diseases): 0.26 Fold
- Fold: Thrombospondin 1 (THBS1) (ovarian cancer cells; Genbank BE999967): 0.42 Fold
- Fold: SNRPN upstream reading frame (SNURF) in Prader-Willi and Angelman syndrome (ovarian cancer cells; Genbank BF114870, Neuromuscular Diseases): 0.39 Fold
- Fold: Novel MAFF (v-maf musculoaponeurotic fibrosarcoma (avian) oncogene family, protein F) LIKE protein (ovarian cancer cells; Genbank Cluster Incl. AL021977, Cancer): 0.47 Fold
- Fold: Butyrophilin (BTF3) - Milk Fat (ovarian cancer cells; Genbank Cluster Incl. U90548, Autoimmune Diseases): 2.15 Fold
- Fold: Facioscapulohumeral muscular dystrophy (FSHD) gene region, D4Z4 tandem repeat unit (ovarian cancer cells; Genbank D38024, Skeletal Diseases): 2.43 Fold
- Fold: FYN oncogene related to SRC, FGR and YES, c-syn protooncogene (ovarian cancer cells; Genbank M14333.1, Cancer): 0.44 Fold
- Fold: Nephropontin inhibits urine crystals - kidney stones (ovarian cancer cells; Genbank M83248.1, Storage and Metabolism Deficiencies): 2.34 Fold
- Fold: FYN oncogene related to SRC, FGR and YES (FYN) (ovarian cancer cells; Genbank N20923, Cancer): 0.13 Fold
- Fold: Sarcoglycan, gamma (35 kD dystrophin-associated glycoprotein) (Muscular Dystrophy) (ovarian cancer cells; Genbank NM_000231.1, Skeletal Diseases): 0.04 Fold
- Fold: Retinitis pigmentosa GTPase regulator (RPGR) (ovarian cancer cells; Genbank NM_000328.1, Eye Diseases): 0.47 Fold
- Fold: UDP-galactose-4-epimerase in epimerase-deficiency galactosemia (ovarian cancer cells; Genbank NM_000403, Storage and Metabolism Deficiencies): 0.66 Fold
- Fold: Sulfite oxidase (SUOX), nuclear gene encoding mitochondrial protein (ovarian cancer cells; Genbank NM_000456.1): 2.11 Fold
- Fold: Galactosamine (N-acetyl)-6-sulfate sulfatase in Morquio syndrome, mucopolysaccharidosis type IVA (ovarian cancer cells; Genbank NM_000512, Storage and Metabolism Deficiencies): 0.52 Fold
- Fold: Regulatory factor X-associated protein (RFXAP)in bare lymphocyte syndrome (ovarian cancer cells; Genbank NM_000538.1, Autoimmune Diseases): 0.41 Fold
- Fold: Endothelial cell growth factor 1 (platelet-derived)/Thymidine phosphorylase (ovarian cancer cells; Genbank NM_001953): 0.42 Fold
- Fold: Figroblast growth factor 2 (basic)(FGF2) (ovarian cancer cells; Genbank NM_002006.1): 0.35 Fold
- Fold: Promyelocytic leukemia (PML) (ovarian cancer cells; Genbank NM_002675.1, Cancer): 2.76 Fold
- Fold: Transglutaminase 4 (prostate) (ovarian cancer cells; Genbank NM_003241, Cancer): 0.24 Fold
- Fold: Thrombospondin 4 (ovarian cancer cells; Genbank NM_003248): 0.58 Fold
- Fold: Thromospondin 4 (THBS4) (ovarian cancer cells; Genbank NM_03248.1): 2.58 Fold
- Fold: Dysferlin, limb girdle muscular dystrophy 2B (autosomal recessive) (DYSF) (ovarian cancer cells; Genbank NM_003494.1, Skeletal Diseases): 2.16 Fold
- Fold: Peroxisomal biogenesis factor 3 (PEX3) (ovarian cancer cells; Genbank NM_003630.1, Autoimmune Diseases): 0.43 Fold
- Fold: Fibroblast growth factor 18 (FGF18) (ovarian cancer cells; Genbank NM_003862.1): 2.75 Fold
- Fold: Dystrophin (muscular dystrophy, Duchenne and Becker types), dystrophin Dp40 isoform (DMD) (ovarian cancer cells; Genbank NM_004019.1, Skeletal Diseases): 2.76 Fold
- Fold: Vitelliform macular dystrophy (Best disease, bestrophin) (VMD2) (ovarian cancer cells; Genbank NM_004183.1, Eye Diseases): 0.28 Fold
- Fold: Smcx homolog, X chromosome (mouse) in nonsyndromic X-linked mental retardation (ovarian cancer cells; Genbank NM_004187, Neuromuscular Diseases): 0.61 Fold
- Fold: Enhancer of zeste (Drosophila) homolog 2 (EZH2) (USP14) (ovarian cancer cells; Genbank NM_004456.1, Cancer): 0.47 Fold
- Fold: Peroxisomal biogenesis factor 14 (PEX14) in peroxisome biogenesis disorders (ovarian cancer cells; Genbank NM_004565.1, Neuromuscular Diseases): 2.06 Fold
- Fold: ATP-binding cassette, sub-family D (ALD), member 2 (ABCD2) in X-linked adrenoleukodystrophy (ovarian cancer cells; Genbank NM_005164.1, Neuromuscular Diseases): 2.71 Fold
- Fold: B-cell CLLlymphoma 3 (BCL3) (ovarian cancer cells; Genbank NM_005178.1, Cancer): 2.05 Fold
- Fold: Neuroblastoma, suppression of tumorigenicity 1 (NBL1), (ovarian cancer cells; Genbank NM_005380.1, Cancer): 3.07 Fold
- Fold: ATP-binding cassette, sub-family B (MDRTAP), member 6 (ABCB6), nuclear gene encoding mitochondrial protein (ovarian cancer cells; Genbank NM_005689.1): 0.46 Fold
- Fold: N-cym protein (ovarian cancer cells; Genbank NM_006316, Cancer): 2.38 Fold
- Fold: Translocase of inner mitochondrial membrane 44 (yeast) homolog (TIM44) (ovarian cancer cells; Genbank NM_006351.1): 0.50 Fold
- Fold: Butyrophilin, subfamily 3, member A3 (BTN3A3) (ovarian cancer cells; Genbank NM_006994.2, Autoimmune Diseases): 2.04 Fold
- Fold: Keratocan (KERA) involved in cornea plana (ovarian cancer cells; Genbank NM_007035.2, Eye Diseases): 0.50 Fold
- Fold: Disintegrin-like and metalloprotease (reprolysin type) with thrombospondin type 1 motif (ADAMTS5) (ovarian cancer cells; Genbank NM_007038.1): 0.23 Fold
- Fold: Angiopoietin-like 2 (ANGPTL2) (ovarian cancer cells; Genbank NM_012098.1): 2.16 Fold
- Fold: Nasopharyngeal carcinoma susceptibility protein (LZ16) (ovarian cancer cells; Genbank NM_013275.1, Cancer): 0.41 Fold
- Fold: Trichorhinophalangeal syndrome I gene (TRPS1) (ovarian cancer cells; Genbank NM_014112.1, Skeletal Diseases): 0.36 Fold
- Fold: Rhabdoid tumor deletion region protein 1 (RTDR1) (ovarian cancer cells; Genbank NM_014433.1, Cancer): 2.20 Fold
- Fold: Amyotrophic lateral sclerosis 2 (juvenile) chromosome region, candidate 3 (ALS2CR3) (ovarian cancer cells; Genbank NM_015049.1, Neuromuscular Diseases): 0.41 Fold
- Fold: Chromosome 5 open reading frame 4 (C5ORF4), putative tumor suppressor (ovarian cancer cells; Genbank NM_016348.1, Cancer): 2.76 Fold
- Fold: Niban protein (NIBAN) (Renal carcinogenesis) (ovarian cancer cells; Genbank NM_022083.1, Cancer): 0.21 Fold
- Fold: RNA binding motif protein 5, putative tumor suppressor (LUCA15) (ovarian cancer cells; Genbank U23946.1, Cancer): 0.43 Fold
- Fold: A kinase anchor protein S-AKAP84 mRNA, nuclear gene encoding mitochondrial protein (ovarian cancer cells; Genbank U34074.1): 2.14 Fold
- Fold: Unknown protein mRNA within the p53 intron 1 (ovarian cancer cells; Genbank U58658.1, Cancer): 0.45 Fold
